According to patent EP4813992A1, “POLYARYL DERIVATIVE AND USE THEREOF” (Hangzhou HealZen Therapeutics Co., Ltd., priority 2023, dated 2025):

The molecules below were run against HPK1 kinase (Homo sapiens, UniProt Q92918) (assay: Lantha screen assay, inhibitory effect on HPK1 kinase). Settings: initial compound concentration 1 µM.
Sequence of HPK1 kinase (Q92918 whole entry): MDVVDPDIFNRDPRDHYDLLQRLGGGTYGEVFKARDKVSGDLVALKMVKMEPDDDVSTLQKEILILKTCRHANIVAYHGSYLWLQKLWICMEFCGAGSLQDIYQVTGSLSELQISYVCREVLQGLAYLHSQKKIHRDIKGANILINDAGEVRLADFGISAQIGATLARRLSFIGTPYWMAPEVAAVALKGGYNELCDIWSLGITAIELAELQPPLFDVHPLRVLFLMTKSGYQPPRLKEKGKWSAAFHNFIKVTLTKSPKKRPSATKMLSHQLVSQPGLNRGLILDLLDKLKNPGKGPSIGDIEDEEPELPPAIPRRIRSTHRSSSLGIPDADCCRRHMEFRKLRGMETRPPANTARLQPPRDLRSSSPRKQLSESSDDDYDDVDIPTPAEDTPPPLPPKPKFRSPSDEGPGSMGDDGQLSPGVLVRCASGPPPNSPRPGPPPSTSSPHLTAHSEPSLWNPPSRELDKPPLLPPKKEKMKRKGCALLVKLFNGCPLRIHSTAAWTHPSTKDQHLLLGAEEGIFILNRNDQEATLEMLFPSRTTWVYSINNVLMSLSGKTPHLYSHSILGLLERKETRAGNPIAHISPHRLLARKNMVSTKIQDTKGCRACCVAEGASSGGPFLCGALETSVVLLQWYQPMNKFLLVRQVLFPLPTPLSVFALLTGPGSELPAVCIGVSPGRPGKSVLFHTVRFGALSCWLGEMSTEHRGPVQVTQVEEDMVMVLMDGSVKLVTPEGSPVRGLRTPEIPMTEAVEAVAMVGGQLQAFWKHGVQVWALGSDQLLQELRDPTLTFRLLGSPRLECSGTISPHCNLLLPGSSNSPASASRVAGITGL
Type: biochemical
Protocol: The Lantha screen assay is used to evaluate the inhibitory effect of the compounds on HPK1 kinase. • a) Kinase buffer: 50 mM HEPES (pH 7.5), 10 mM MgCl2, 4 mM DTT, 0.01% Tween-20, 0.01% BSA. • b) Compound Preparation: The compound is diluted with DMSO, and the initial detection concentration of the compound is 1 µM and is diluted to the corresponding concentration. • c) Kinase response and termination: A kinase solution is prepared by adding kinase buffer, the kinase solution and the compound are added to the test plate to be incubated at room temperature for 10 minutes. Fluorescein-PKC and ATP are added to the kinase buffer to form a substrate solution, and 5 µl of the substrate solution is added to the test plate to start the reaction to be incubated at room temperature for 90 minutes; then, 10 µl of a mixture of antibody and EDTA is added to terminate the reaction to be incubated at room temperature for 60 minutes. • d) The date is read by Envision instrument to plot a curve with the Log concentration of the inhibitor as the X-axis and the inhibition rate as the Y-axis, and then the formula Y=Bottom + (Top-Bottom)/(1+(IC50/X)^HillSlope) is used to obtain IC50. Table 1 Inhibitory activity the compounds of the invention on HPK1 kinase
`Cc1cc(N2CC(CN3CC=C(c4c(C)cc(-c5cnc6[nH]cc(-c7cnn(C8CCOCC8)c7)c6c5)cc4C)CC3)C2)ccc1N1CCC(=O)NC1=O` [compound 114] was tested, and the IC50 was less than 0.01 µM. For `Cc1cc(NCC2(CN3CC=C(c4c(C)cc(-c5cnc6[nH]cc(-c7ccc(C(=O)N(C)C)cc7)c6n5)cc4C)CC3)CC2)ccc1N1CCC(=O)NC1=O` [compound 040], the IC50 was less than 0.01 µM. `COc1cc(N2CC(CN3CC=C(c4c(C)cc(-c5cnc6scc(-c7ccc(C(=O)N(C)C)cc7)c6n5)cc4C)CC3)C2)ccc1C(=O)NC1CCC(=O)NC1=O` (stereo not shown) [compound 083] showed an IC50 of less than 0.01 µM. Molecule `CNc1cc(-c2cnc3[nH]cc(-c4ccc(C(=O)N(C)C)cc4)c3n2)ccc1C1=CCN(CC2CN(c3ccc(N4CCC(=O)NC4=O)c(C)c3)C2)CC1` [compound 131] has an IC50 of less than 0.01 µM. `Cc1cc(N2CCC3(CCC(N4CC=C(c5c(C)cc(-c6cnc7[nH]cc(-c8ccc(C(=O)N(C)C)cc8)c7n6)cc5C)CC4)C3)C2)ccc1N1CCC(=O)NC1=O` (stereo not shown) [compound 017] showed an IC50 of less than 0.01 µM. `CCN1CCC(n2cc(-c3c[nH]c4ncc(-c5cc(C)c(C6=CCN(CC7CN(c8ccc(C9CCC(=O)NC9=O)cc8)C7)CC6)c(C)c5)nc34)cn2)CC1` (stereo not shown) [compound 056] gave an IC50 of less than 0.01 µM. For `Cc1cc(N2CC(CN3CC=C(c4c(C)cc(-c5cnc6[nH]cc(-c7ccc(-c8ncco8)cc7)c6c5)cc4C)CC3)C2)ccc1N1CCC(=O)NC1=O` [compound 138], the IC50 was less than 0.01 µM. `COc1cc(C(=O)CCN2CC=C(c3c(C)cc(-c4cnc5[nH]cc(-c6ccc(C(=O)N(C)C)cc6)c5n4)cc3C)CC2)ccc1C1CCC(=O)NC1=O` (stereo not shown) [compound 009] gave an IC50 of less than 0.01 µM. `Cc1cc(-c2cnc3[nH]cc(-c4ccc(C(=O)N(C)C)cc4)c3n2)cnc1C1=CCN(C2CCN(c3ccc(N4CCC(=O)NC4=O)c(F)c3)C2)CC1` (stereo not shown) [compound 055] gave an IC50 of less than 0.01 µM. With `Cc1cc(-c2cnc3[nH]cc(-c4ccc(C(=O)N(C)C)c(F)c4)c3n2)cc(C)c1C1=CCN(CC2CN(c3ccc(C(=O)NC4CCC(=O)NC4=O)cc3)C2)CC1` (stereo not shown) [compound 029] the IC50 was less than 0.01 µM. `Cc1cc(N2CC(CN3CC=C(c4c(C)cc(-c5cnc6[nH]cc(-c7cnn(C8CCNCC8)c7)c6c5)cc4C)CC3)C2)ccc1N1CCC(=O)NC1=O` [compound 134] was tested, and the IC50 was less than 0.01 µM. For `Cc1cc(-c2cnc3[nH]nc(-c4ccc(C(=O)N(C)C)cc4)c3n2)cc(C)c1C1=CCN(CC2CCN(c3ccc(N4CCC(=O)NC4=O)c(F)c3)C2)CC1` (stereo not shown) [compound 076], the IC50 was less than 0.01 µM. With `Cc1cc(N2CC(CCN3CC=C(c4c(C)cc(-c5cnc6[nH]cc(-c7ccc(C(=O)N(C)C)cc7)c6n5)cc4C)CC3)C2)ccc1N1CCC(=O)NC1=O` [compound 127] the IC50 was less than 0.01 µM. With `Cc1cc(-c2cnc3[nH]cc(-c4ccc(C(=O)N(C)C)cc4)c3n2)cc(C)c1C1=CCN(C2CN(c3ccc(C(=O)NC4CCC(=O)NC4=O)cc3)C2)CC1` (stereo not shown) [compound 005] the IC50 was less than 0.01 µM. `Cc1cc(-c2cnc3[nH]cc(-c4ccc(C(=O)N(C)C)cc4)c3n2)cc(C)c1C1=CCN(CC2CN(c3ccc(C(=O)NC4CCC(=O)NC4=O)c(F)c3)C2)CC1` (stereo not shown) [compound 100] was tested, and the IC50 was less than 0.01 µM. Molecule `CN(C)C(=O)c1ccc(-c2c[nH]c3ncc(-c4ccc(C5=CCN(CC6CN(c7ccc(C(=O)NC8CCC(=O)NC8=O)cc7)C6)CC5)c(C5CCCN5)c4)nc23)cc1` (stereo not shown) [compound 058] has an IC50 of less than 0.01 µM. `Cc1cc(-c2cnc(N)c(Oc3cnn(C4CCN(C)CC4)c3)n2)cc(C)c1C1=CCN(CC2CN(c3ccc(C4CCC(=O)NC4=O)cc3)C2)CC1` (stereo not shown) [compound 096] gave an IC50 of less than 0.01 µM. For `Cc1cc(-c2cnc3[nH]cc(-c4ccc(C(=O)N(C)C)cc4)c3n2)cc(C)c1C1=CCN(CC2CN(c3ccc4c(c3)c(C3CCC(=O)NC3=O)nn4C)C2)CC1` (stereo not shown) [compound 145], the IC50 was less than 0.01 µM. `COc1ccc(C(=O)N2CC(CN3CC=C(c4c(C)cc(-c5cnc6[nH]cc(-c7ccc(C(=O)N(C)C)cc7)c6n5)cc4C)CC3)C2)cc1N1CCC(=O)NC1=O` [compound 001] gave an IC50 of less than 0.01 µM. For `Cc1cc(-c2cnc3[nH]cc(-c4ccc(C(=O)N(C)C)cn4)c3n2)cc(C)c1C1=CCN(CC2CN(c3ccc(C(=O)NC4CCC(=O)NC4=O)cc3)C2)CC1` (stereo not shown) [compound 031], the IC50 was less than 0.01 µM. `Cc1ccc(C(=O)N2CC(CN3CC=C(c4ccc(-c5cnc6[nH]cc(-c7ccc(C(=O)N(C)C)cc7)c6n5)cc4CN(C)C)CC3)C2)cc1N1CCC(=O)NC1=O` [compound 051] showed an IC50 of less than 0.01 µM. In the case of `Cc1cc(-c2cnc3[nH]cc(-c4ccc(C(=O)N(C)C)cc4)c3n2)cc(C)c1C1=CCN(CC2CN(c3ccc(C4CCC(=O)NC4=O)cc3)C2)CC1` (stereo not shown) [compound 102], the IC50 is reported as less than 0.01 µM. `Cc1cc(-c2cnc3[nH]cc(-c4ccc(C(=O)N(C)C)cc4)c3n2)cc(C)c1C1=CCN(CC2CN(c3ccc4c(c3)c(N3CCC(=O)NC3=O)nn4C)C2)CC1` [compound 143] gave an IC50 of less than 0.01 µM. For `COCC(C)N1CCC(n2cc(-c3c[nH]c4ncc(-c5cc(C)c(C6=CCN(CC7CN(c8ccc(N9CCC(=O)NC9=O)c(C)c8)C7)CC6)c(C)c5)cc34)cn2)CC1` (stereo not shown) [compound 128], the IC50 was less than 0.01 µM. For `COc1cc(N2CC(CN3CC=C(c4c(C)cc(-c5cnc6[nH]cc(-c7ccc(C(=O)N(C)C)cc7)c6n5)cc4C)CC3)C2)ccc1C(=O)NC1CCC(=O)NC1=O` (stereo not shown) [compound 059], the IC50 was less than 0.01 µM. Molecule `Cc1cc(-c2cnc3[nH]cc(-c4ccc(C(=O)N(C)C)cc4)c3n2)cc(C)c1C1=CCN(CC#Cc2ccc(C(=O)NC3CCC(=O)NC3=O)cc2)CC1` (stereo not shown) [compound 026] has an IC50 of less than 0.01 µM. `Cc1cc(-c2cnc(N)c(OCc3ccc(C(=O)N(C)C)cc3)n2)cc(C)c1C1=CCN(CC2CN(c3ccc(C(=O)NC4CCC(=O)NC4=O)cc3)C2)CC1` (stereo not shown) [compound 094] was tested, and the IC50 was less than 0.01 µM. `Cc1cc(-c2cnc3[nH]cc(-c4ccc(C(=O)N(C)C)cc4)c3c2)cc(C)c1C1=CCN(CC2CCN(C(=O)c3ccc(Cl)c(N4CCC(=O)NC4=O)c3)CC2)CC1` [compound 126] gave an IC50 of less than 0.01 µM. `Cc1cc(N2CC(CN3CC=C(c4c(C)cc(-c5cnc6[nH]cc(-c7cnn(C8CCN(C9CCC9)CC8)c7)c6c5)cc4C)CC3)C2)ccc1N1CCC(=O)NC1=O` [compound 122] showed an IC50 of less than 0.01 µM. Work on `Cc1cc(-c2cnc3[nH]cc(-c4ccc(C(=O)N(C)C)cc4)c3n2)cc(C)c1C1=CCN(CC2CCN(c3ccc(C(=O)NC4CCC(=O)NC4=O)cc3)C2)CC1` (stereo not shown) [compound 074] yielded an IC50 of less than 0.01 µM. For `Cc1cc(-c2cnc3[nH]cc(-c4ccc(C(=O)N(C)C)cc4)c3n2)cc(C)c1C1=CCN(CCCC(=O)c2ccc(C3CCC(=O)NC3=O)cc2)CC1` (stereo not shown) [compound 033], the IC50 was less than 0.01 µM. For `Cc1cc(-c2cnc3[nH]cc(-c4ccc(C(=O)N(C)C)cc4)c3n2)cc(C)c1C1=CCN(C2CN(Cc3ccc(F)c(N4CCC(=O)NC4=O)c3)C2)CC1` [compound 038], the IC50 was less than 0.01 µM. Molecule `Cc1cc(N2CC(N3CC=C(c4c(C)cc(-c5cnc6[nH]cc(-c7ccc(C(=O)N(C)C)cc7)c6n5)cc4C)CC3)C2)ccc1N1CCC(=O)NC1=O` [compound 125] has an IC50 of less than 0.01 µM. For `COc1cc(N2CC(CN3CC=C(c4c(C)cc(-c5cnc6[nH]cc(-c7ccc(C(=O)N(C)C)cc7)c6n5)cc4C)CC3)C2)ccc1N1CCC(=O)NC1=O` [compound 004], the IC50 was less than 0.01 µM. `Cc1cc(-c2cnc3[nH]cc(-c4ccc(C(=O)N(C)C)cc4)c3n2)cc(C)c1C1=CCN(CC2CN(c3ccc(NC4CCC(=O)NC4=O)cc3)C2)CC1` (stereo not shown) [compound 043] showed an IC50 of less than 0.01 µM. For `Cc1cc(-c2cnc3[nH]cc(-c4ccc(C(=O)N(C)C)cc4)c3n2)cc(C)c1C1=CCN(CC2CN(c3ccc(NC4CCC(=O)NC4=O)cc3F)C2)CC1` (stereo not shown) [compound 106], the IC50 was less than 0.01 µM. Molecule `Cc1cc(-c2cnc3[nH]nc(-c4ccc(C(=O)N(C)C)cc4)c3c2)cc(C)c1C1=CCN(CC2CCN(C(=O)c3ccc(F)c(N4CCC(=O)NC4=O)c3)C2)CC1` (stereo not shown) [compound 078] has an IC50 of less than 0.01 µM. Molecule `Cc1cc(-c2cnc3[nH]cc(-c4ccc(C(=O)N(C)C)cc4)c3n2)cc(C)c1C1=CCN(CC2CN(C(=O)c3ccc(Cl)c(N4CCC(=O)NC4=O)c3)C2)CC1` [compound 124] has an IC50 of less than 0.01 µM. `Cc1cc(-c2cnc3[nH]cc(-c4ccc(C(=O)N(C)C)nc4)c3n2)cc(C)c1C1=CCN(CC2CN(c3ccc(C(=O)NC4CCC(=O)NC4=O)cc3)C2)CC1` (stereo not shown) [compound 030] gave an IC50 of less than 0.01 µM. Molecule `Cc1cc(-c2cnc3[nH]cc(-c4ccc(C(=O)N(C)C)cc4)c3n2)cc(C)c1C1=CCN(C(=O)C2CN(c3ccc(C4CCC(=O)NC4=O)cc3)C2)CC1` (stereo not shown) [compound 060] has an IC50 of less than 0.01 µM. Work on `Cc1cc(-c2cnc(N)c(Oc3ccc(C(=O)N(C)C)cc3)n2)cc(C)c1C1=CCN(CC2CN(c3ccc(C(=O)NC4CCC(=O)NC4=O)cc3)C2)CC1` (stereo not shown) [compound 093] yielded an IC50 of less than 0.01 µM. `Cc1ccc(C(=O)N2CC(CN3CC=C(c4c(C)cc(-c5cnc6[nH]cc(-c7cnc8c(c7C)NCCO8)c6n5)cc4C)CC3)C2)cc1N1CCC(=O)NC1=O` [compound 069] gave an IC50 of less than 0.01 µM. `Cc1cc(-c2cnc3[nH]cc(-c4ccc(C(=O)N(C)C)cc4)c3n2)cc(C)c1C1=CCN(CC2CC2Nc2ccc(C(=O)NC3CCC(=O)NC3=O)cc2)CC1` (stereo not shown) [compound 036] gave an IC50 of less than 0.01 µM. With `Cc1cc(-c2cnc3[nH]cc(-c4ccc(C(=O)N(C)C)cc4)c3n2)cc(C)c1C1=CCN(C2CC(C(=O)c3ccc(F)c(N4CCC(=O)NC4=O)c3)C2)CC1` (stereo not shown) [compound 037] the IC50 was less than 0.01 µM. Work on `Cc1ccc(C(=O)N2CC(N3CC=C(c4c(C)cc(-c5cnc6[nH]cc(-c7ccc8c(c7)CCN(C)C8=O)c6n5)cc4C)CC3)C2)cc1N1CCC(=O)NC1=O` [compound 072] yielded an IC50 of less than 0.01 µM. Work on `Cc1cc(NCC2(CN3CC=C(c4c(C)cc(-c5cnc6[nH]cc(-c7ccc(C(=O)N(C)C)cc7)c6n5)cc4C)CC3)CCC2)ccc1N1CCC(=O)NC1=O` [compound 041] yielded an IC50 of less than 0.01 µM.
